From patent US9809583B2 (priority 2014, dated 2017) come the findings set out here.

Each structure is given as a SMILES string.

The target in the assay is androgen receptor (hAR) (Homo sapiens (Human), UniProt P10275). Kind of assay: Test of transcriptional activity (hAR / ARE-Luc dual-luciferase assay in CHO cells). Format: cell-based. The settings on record: EC50 [nM] (mean ± SE), CHO cells with hAR and ARE-Luc, 24 hours; 10 nM DHT = 100%. As to the method:
In order to examine the transcriptional activity of the agonists of the present invention, the following in-vitro experiment was performed. CHO (Chinese hamster ovary) cell line (ATCC, #CCL-61) was seeded in a 96-well plate at a density of 1.5×10^4 cells/well, and cultured for 24 hours. Then, a plasmid hAR and plasmid ARE-Luc-mixed medium was added thereto. The transfected cell line was treated with 0.1˜10,000 nM of SARM derivatives, and then allowed to react for 24 hours.

Chain of androgen receptor (hAR) (P10275 whole entry): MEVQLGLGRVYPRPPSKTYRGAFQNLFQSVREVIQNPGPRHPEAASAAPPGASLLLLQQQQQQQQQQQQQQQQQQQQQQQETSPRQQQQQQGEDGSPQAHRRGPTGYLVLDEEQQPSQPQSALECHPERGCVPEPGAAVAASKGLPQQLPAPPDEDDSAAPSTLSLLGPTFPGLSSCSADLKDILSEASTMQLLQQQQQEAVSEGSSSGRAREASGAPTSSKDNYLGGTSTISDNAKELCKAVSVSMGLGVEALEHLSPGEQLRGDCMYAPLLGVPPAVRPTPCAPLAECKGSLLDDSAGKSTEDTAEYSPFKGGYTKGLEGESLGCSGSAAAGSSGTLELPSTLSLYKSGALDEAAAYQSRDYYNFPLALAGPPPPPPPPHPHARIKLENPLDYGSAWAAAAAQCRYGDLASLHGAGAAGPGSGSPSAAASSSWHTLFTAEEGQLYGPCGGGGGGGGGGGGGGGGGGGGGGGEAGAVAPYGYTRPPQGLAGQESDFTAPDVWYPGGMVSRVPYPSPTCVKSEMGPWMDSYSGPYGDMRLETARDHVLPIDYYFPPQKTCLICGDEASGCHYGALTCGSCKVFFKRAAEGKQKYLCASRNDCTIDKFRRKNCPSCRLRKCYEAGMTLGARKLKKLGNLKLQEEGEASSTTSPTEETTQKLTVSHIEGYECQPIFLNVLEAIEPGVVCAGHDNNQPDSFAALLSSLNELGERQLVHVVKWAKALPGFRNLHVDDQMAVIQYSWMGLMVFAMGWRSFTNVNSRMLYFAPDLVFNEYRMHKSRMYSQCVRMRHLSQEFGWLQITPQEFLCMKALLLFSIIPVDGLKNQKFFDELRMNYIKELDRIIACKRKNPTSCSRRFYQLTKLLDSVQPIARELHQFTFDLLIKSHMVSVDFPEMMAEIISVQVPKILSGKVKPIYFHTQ

Consider `N#Cc1ccc(N2C[C@@H](C(=O)Nc3cccnc3)O[C@@H]2C(F)(F)F)cc1C(F)(F)F` [Example 110, (2R,5S)-3-(4-cyano-3-(trifluoromethyl)phenyl)-N-(pyridin-3-yl)-2-(trifluoromethyl)oxazolidine-5-carboxamide], for which the EC50 (as a rule, the concentration at which the effect is half-maximal) was determined as 80 nM. Regarding `N#Cc1ccc(NC(=O)[C@@H]2CN(c3ccc(C#N)c(C(F)(F)F)c3)[C@@H](C(F)(F)F)O2)cc1` [Example 138, (2R,5S)-3-(4-cyano-3-(trifluoromethyl)phenyl)-N-(4-cyanophenyl)-2-(trifluoromethyl)oxazolidine-5-carboxamide], the EC50 came out at 17.3 nM. Compared with the last compound, the EC50 is about 4.6-fold lower. The compound `N#Cc1ccc(NC(=O)[C@@H]2CN(c3ccc(C#N)c(C(F)(F)F)c3)[C@@H](C(F)(F)F)O2)c(F)c1` [Example 139, (2R,5S)-N-(4-cyano-2-fluorophenyl)-3-(4-cyano-3-(trifluoromethyl)phenyl)-2-(trifluoromethyl)oxazolidine-5-carboxamide] had an EC50 of 2.74 nM. The result for `N#Cc1ccc(N2C[C@@H](C(=O)Nc3ccc(F)c(F)c3)O[C@@H]2C(F)(F)F)cc1C(F)(F)F` [Example 140, (2R,5S)-3-(4-cyano-3-(trifluoromethyl)phenyl)-N-(3,4-difluorophenyl)-2-(trifluoromethyl)oxazolidine-5-carboxamide] reads 14.7 nM; that for `N#Cc1cccc(NC(=O)[C@@H]2CN(c3ccc(C#N)c(C(F)(F)F)c3)[C@@H](C(F)(F)F)O2)c1` [Example 141, (2R,5S)-3-(4-cyano-3-(trifluoromethyl)phenyl)-N-(3-cyanophenyl)-2-(trifluoromethyl)oxazolidine-5-carboxamide], 44.2 nM; that for `N#Cc1ccc(N2C[C@@H](C(=O)Nc3ccnc(Cl)c3)O[C@@H]2C(F)(F)F)cc1C(F)(F)F` [Example 142, (2R,5S)-N-(2-chloropyridin-4-yl)-3-(4-cyano-3-(trifluoromethyl)phenyl)-2-(trifluoromethyl)oxazolidine-5-carboxamide], 0.79 nM. Consider `N#Cc1ccc(NC(=O)[C@@H]2CN(c3ccc(C#N)c(C(F)(F)F)c3)[C@@H](C(F)(F)F)O2)cc1C(F)(F)F` [Example 144, (2R,5S)-N,3-bis(4-cyano-3-(trifluoromethyl)phenyl)-2-(trifluoromethyl)oxazolidine-5-carboxamide], for which the EC50 was determined as 11.1 nM. On to `CCc1cc(C#N)ccc1NC(=O)[C@@H]1CN(c2ccc(C#N)c(C(F)(F)F)c2)[C@@H](C(F)(F)F)O1` [Example 145, (2R,5S)-N-(4-cyano-2-ethylphenyl)-3-(4-cyano-3-(trifluoromethyl)phenyl)-2-(trifluoromethyl)oxazolidine-5-carboxamide], for which the EC50 came to 305 nM. Consider `N#Cc1ccc(NC(=O)[C@@H]2CN(c3ccc(C#N)c(C(F)(F)F)c3)[C@@H](C(F)(F)F)O2)cc1F` [Example 147, (2R,5S)-3-(4-cyano-3-(trifluoromethyl)phenyl)-N-(4-cyano-3-fluorophenyl)-2-(trifluoromethyl)oxazolidine-5-carboxamide], for which the EC50 worked out at 768 nM. `N#Cc1ccc(N2C[C@@H](C(=O)Nc3ccc(O)cc3)O[C@@H]2C(F)(F)F)cc1C(F)(F)F` [Example 148, (2R,5S)-3-(4-cyano-3-(trifluoromethyl)phenyl)-N-(4-hydroxyphenyl)-2-(trifluoromethyl)oxazolidine-5-carboxamide] gave an EC50 of 13.5 nM. Against the preceding compound, the EC50 is about 57-fold lower. Compound `N#Cc1ccc(N2C[C@@H](C(=O)Nc3ccc([N+](=O)[O-])cc3Cl)O[C@@H]2C(F)(F)F)cc1C(F)(F)F` [Example 151, (2R,5S)-N-(2-chloro-4-nitrophenyl)-3-(4-cyano-3-(trifluoromethyl)phenyl)-2-(trifluoromethyl)oxazolidine-5-carboxamide] had an EC50 of 43.7 nM. This EC50 is about 3.2-fold higher than that of the compound before.

Turning to `N#Cc1ccc(N2C[C@@H](C(=O)Nc3ccc(N)cc3Cl)O[C@@H]2C(F)(F)F)cc1C(F)(F)F` [Example 152, (2R,5S)-N-(4-amino-2-chlorophenyl)-3-(4-cyano-3-(trifluoromethyl)phenyl)-2-(trifluoromethyl)oxazolidine-5-carboxamide], the EC50 was found to be 521 nM. This EC50 lies about 12-fold higher than the previous one. Turning to `COC(=O)Nc1ccc(NC(=O)[C@@H]2CN(c3ccc(C#N)c(C(F)(F)F)c3)[C@@H](C(F)(F)F)O2)c(Cl)c1` [Example 154, methyl(3-chloro-4-((2R,5S)-3-(4-cyano-3-(trifluoromethyl)phenyl)-2-(trifluoromethyl)oxazolidine-5-carboxamido)phenyl)carbamate], the EC50 was determined as 27.8 nM. Compared with the last compound, the EC50 is about 19-fold lower. The compound `N#Cc1ccc(N2C[C@@H](C(=O)Nc3ccc([N+](=O)[O-])cc3)O[C@@H]2C(F)(F)F)cc1C(F)(F)F` [Example 155, (2R,5S)-3-(4-cyano-3-(trifluoromethyl)phenyl)-N-(4-nitrophenyl)-2-(trifluoromethyl)oxazolidine-5-carboxamide] came in with an EC50 of 823 nM. Regarding `N#Cc1ccc(N2C[C@@H](C(=O)Nc3ccc(N)cc3)O[C@@H]2C(F)(F)F)cc1C(F)(F)F` [Example 156, (2R,5S)-N-(4-aminophenyl)-3-(4-cyano-3-(trifluoromethyl)phenyl)-2-(trifluoromethyl)oxazolidine-5-carboxamide], the EC50 was determined as 323 nM. This EC50 lies about 2.5-fold lower than the previous one. `COC(=O)Nc1ccc(NC(=O)[C@@H]2CN(c3ccc(C#N)c(C(F)(F)F)c3)[C@@H](C(F)(F)F)O2)cc1` [Example 157, methyl(4-((2R,5S)-3-(4-cyano-3-(trifluoromethyl)phenyl)-2-(trifluoromethyl)oxazolidine-5-carboxamido)phenyl)carbamate] had an EC50 of 231 nM. In turn, `CCC(=O)Nc1ccc(NC(=O)[C@@H]2CN(c3ccc(C#N)c(C(F)(F)F)c3)[C@@H](C(F)(F)F)O2)cc1` [Example 158, (2R,5S)-3-(4-cyano-3-(trifluoromethyl)phenyl)-N-(4-propionamidophenyl)-2-(trifluoromethyl)oxazolidine-5-carboxamide] displayed an EC50 of 12.5 nM.

In turn, `CC(C)C(=O)Nc1ccc(NC(=O)[C@@H]2CN(c3ccc(C#N)c(C(F)(F)F)c3)[C@@H](C(F)(F)F)O2)cc1` [Example 159, (2R,5S)-3-(4-cyano-3-(trifluoromethyl)phenyl)-N-(4-isobutylamidophenyl)-2-(trifluoromethyl)oxazolidine-5-carboxamide] gave an EC50 of 288 nM. `N#Cc1ccc(N2C[C@@H](C(=O)Nc3ccc(NC(=O)CO)cc3)O[C@@H]2C(F)(F)F)cc1C(F)(F)F` [Example 160, (2R,5S)-3-(4-cyano-3-(trifluoromethyl)phenyl)-N-(4-(2-hydroxyacetamido)phenyl)-2-(trifluoromethyl)oxazolidine-5-carboxamide] had an EC50 of 105 nM. This EC50 lies about 2.7-fold lower than the previous one. `N#Cc1ccc(N2C[C@@H](C(=O)Nc3ccc(NC(N)=O)cc3)O[C@@H]2C(F)(F)F)cc1C(F)(F)F` [Example 161, (2R,5S)-3-(4-cyano-3-(trifluoromethyl)phenyl)-2-(trifluoromethyl)-N-(4-ureidophenyl)oxazolidine-5-carboxamide] gave an EC50 of 240 nM. `N#CCC(=O)Nc1ccc(NC(=O)[C@@H]2CN(c3ccc(C#N)c(C(F)(F)F)c3)[C@@H](C(F)(F)F)O2)cc1` [Example 162, (2R,5S)-3-(4-cyano-3-(trifluoromethyl)phenyl)-N-(4-(2-cyanoacetamido)phenyl)-2-(trifluoromethyl)oxazolidine-5-carboxamide] had an EC50 of 149 nM.
